In US8916686B2, “TDF-related compounds and analogs thereof” (Thrasos Innovation, Inc., priority 2004, dated 2014):

Assays:
[1] = test system: Smad1; assay: Smad1 nuclear translocation in HK-2 cells (immunofluorescence); assay type: cell-based, human; conditions: 1.3 uM and 33 uM compound
Protocol: Phosphorylation and nuclear translocation of Smads occurs following the activation of Type I and Type II receptors and subsequent signal transduction to intracellular Smad targets. Phosphorylation and nuclear translocation of R-Smad in HK-2 cells by TDFRP compounds is assayed by immuno-fluorescent microscopy methods, using anti-phospho Smad 1/5 antibodies according to the procedure of H Aoki, M Fujii, T Imamura, K Yagi, K Takehara, M Kato and K Miyazono. J. of Cell Sci. 114, 1483-1489, 2001) and by Western blot analysis (FIG. 15A-FIG. 15C).
HK2, human proximal tubule cells are incubated in culture medium alone or exposed TDFRP or control compounds for one hour ten minutes at 37 degree C. BMP-7 served as a positive control in the assay. Each well is rinsed with 1 mL prewarmed medium. 1 mL per well of cold Acetone/Methanol mix (1:1) is added and incubated for 2 minutes at room temperature to fix the cells. Wells are washed with 1 mL of cold PBS and blocked with 1 mL blocking buffer (3% BSA, 1% goat serum in PBS) for 7 minutes. Wells are aspirated without disturbing the cells, and 500 uL/well primary antibody is added (anti-phospho-Smad 1) at 0.056 ug/mL concentration in 3% BSA in PBS (no goat serum). Cells are incubated overnight at 4 degrees C. […]

[2] = test system: mouse model of nephrotoxic serum nephritis; assay: Nephrotoxic serum nephritis (NTN) model of chronic renal injury; assay type: in vivo; conditions: oral 5 mg/kg/24 hr
Protocol: Attenuation of renal fibrosis progression by Thrasos compound in a mouse model of nephrotoxic serum nephritis. FIG. 8A: Kidney section of vehicle-treated animal, FIG. 8B: Kidney section of animal received oral administration of compound SEQ ID NO 45 (5 mg/kg/24 hr).
Nephrotoxic serum nephritis (NTN) is a model of progressive chronic renal injury. Mice given injections of nephrotoxic serum (NTS) develop glomerulonephritis, leading to tubulointerstitial disease associated with EMT, and ultimately renal fibrosis, over a period of about six weeks. […] In these studies, BMP-7 was able to restore expression of E-cadherin proteins in previously damaged tubules. […] For a review of the above see, Zeisberg et al., Nature Medicine, 9; 7 pp 964-968, (2003) and Kalluri et al., J. Clin Investigation 112:1776-1784 (2003).

CYFDDSSNVLCKKYRS [SEQ ID NO 45]
Smad1 translocation [1]: Smad1 Translocation
renal fibrosis [2]: significantly attenuated progression of renal fibrosis
